Data as given in PubChem BioAssay (NCI).
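48-hour exposure; five concentrations; linearly interpolated endpoints. GI50 is the concentration that inhibits growth by half. Definition used: TGI = concentration required for complete inhibition of growth.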

Experiments:
Assay in all cases: NCI tumour cell line growth inhibition, 48 h
NCI-H460 lung = tested on: NCI-H460 lung
M14 melanoma = tested on: M14 melanoma
HCT-116 colon = tested on: HCT-116 colon
SK-MEL-2 melanoma = tested on: SK-MEL-2 melanoma
SR leukemia = tested on: SR leukemia
SK-MEL-28 melanoma = tested on: SK-MEL-28 melanoma
MCF7 breast = tested on: MCF7 breast
NCI-H226 lung = tested on: NCI-H226 lung

Row | Structure (SMILES) | GI50 (NCI-H460 lung) | TGI (NCI-H460 lung) | GI50 (M14 melanoma) | TGI (M14 melanoma) | GI50 (HCT-116 colon) | TGI (HCT-116 colon) | GI50 (SK-MEL-2 melanoma) | TGI (SK-MEL-2 melanoma) | GI50 (SR leukemia) | TGI (SR leukemia) | GI50 (SK-MEL-28 melanoma) | TGI (SK-MEL-28 melanoma) | GI50 (MCF7 breast) | TGI (MCF7 breast) | GI50 (NCI-H226 lung) | TGI (NCI-H226 lung)
1 | CC1(C)C2CCC13C(=O)C1OC3(C2)C2C(=O)c3cc4ccccc4cc3C(=O)C12 (centres undefined) | 5.48 µM | > 100 µM | 10.7 µM | > 100 µM | 12 µM | > 100 µM | 42.2 µM | > 100 µM | 1.83 µM | 7.04 µM | 8.36 µM | > 100 µM | 6.17 µM | > 100 µM | 24.9 µM | 95.2 µM
2 | CCCCCCCCNc1cc2c3c(c1)CCCN3CCC2 | 2.66 µM | 9.18 µM | 2.5 µM | 13.6 µM | 1.11 µM | 7.92 µM | 3.06 µM | 12.7 µM | 0.551 µM | > 100 µM | 3.87 µM | 17.8 µM | 2.98 µM | 13 µM | 2.46 µM | 16.4 µM
3 | COc1ccc(-c2cc3c(c4cc(OC)ccc24)C(=O)OC3=O)cc1 | – | > 100 µM | – | > 100 µM | – | > 100 µM | – | > 100 µM | – | > 100 µM | – | > 100 µM | – | > 100 µM | – | > 100 µM
4 | O.O.[NH-]C1(C(=O)O)CCCC1.[NH-]C1(C(=O)O)CCCC1.[Ni+2] | – | > 100 µM | 96.7 µM | > 100 µM | – | > 100 µM | – | > 100 µM | 65.9 µM | > 100 µM | – | > 100 µM | – | > 100 µM | – | > 100 µM
5 | CCOC(=O)c1c(C)nc2c(c1N)CC(=O)N2Cc1ccc(OC)cc1 | – | – | > 100 µM | > 100 µM | – | – | 36.1 µM | > 100 µM | 63.1 µM | > 100 µM | > 100 µM | > 100 µM | > 100 µM | > 100 µM | 7.36 µM | > 100 µM
6 | N=C1C(c2nc3ccccc3s2)=C(O)CN1c1ccc(F)c(Cl)c1 | 17.5 µM | > 100 µM | > 100 µM | > 100 µM | 24.2 µM | > 100 µM | 39 µM | > 100 µM | 0.666 µM | 6.33 µM | 33.3 µM | > 100 µM | 40.3 µM | > 100 µM | 6.11 µM | 55.4 µM
7 | CN(CCO)CC[C@H](CSc1ccccc1)Nc1ccc(S(=O)(=O)NC(=O)c2ccc(N3CCC([C@@H](O)c4ccccc4-c4ccc(Cl)cc4)CC3)cc2)cc1S(=O)(=O)C(F)(F)F | 4.74 µM | 19.9 µM | 3.51 µM | 20.2 µM | 2.26 µM | 6.8 µM | 1.41 µM | 4.28 µM | 2.23 µM | 35.7 µM | 2.23 µM | 5.11 µM | 2.97 µM | 12.2 µM | 2.5 µM | 7.46 µM
8 | O=c1[nH]nnc2c1ncn2C1OC(CO)C(O)C1O (centres undefined) | 2.82 µM | > 100 µM | 3.57 µM | > 100 µM | 7.59 µM | > 100 µM | 0.707 µM | 12.2 µM | 3.21 µM | 59.7 µM | 68.3 µM | > 100 µM | 17.3 µM | > 100 µM | 10.3 µM | > 100 µM
9 | O=C(Oc1cccc(F)c1OC(=O)c1cccc(O)c1)c1cccc(O)c1 | 11.6 µM | > 100 µM | 34.1 µM | > 100 µM | 20.2 µM | > 100 µM | > 100 µM | > 100 µM | 7.91 µM | > 100 µM | 80.1 µM | > 100 µM | 34.9 µM | > 100 µM | 45.3 µM | > 100 µM
10 | CCN1C(=O)N(CC)C2C1NN=c1s/c(=C\c3cccc(F)c3)c(=O)n12 (centres undefined) | 0.217 µM | 15.1 µM | 0.0727 µM | > 100 µM | 0.131 µM | > 100 µM | 1.69 µM | > 100 µM | 0.044 µM | > 100 µM | 13.1 µM | > 100 µM | 0.0392 µM | > 100 µM | 0.24 µM | > 100 µM
11 | COc1ccc(/C=C/C(=O)c2cc(OC)c(OC)c(OC)c2)cc1OCc1cn(Cc2ccc(F)cc2)nn1 | 3.3 µM | 15.4 µM | 4.07 µM | > 100 µM | 2.38 µM | 10.7 µM | 10.6 µM | 41 µM | 0.843 µM | > 100 µM | 5.62 µM | 35.5 µM | 2.43 µM | > 100 µM | 2.26 µM | 7.67 µM
12 | ClCc1cccc2c(CCl)cccc12 | 0.767 µM | 2.65 µM | 5.95 µM | 23.4 µM | 4.18 µM | 19.1 µM | 20.4 µM | 67.4 µM | 0.901 µM | > 100 µM | 10.9 µM | 24.4 µM | 0.871 µM | 7.54 µM | 12 µM | 30.6 µM
